Data on two compounds can be found in patent US20190307820A1, “COMPOSITIONS AND METHODS OF USING STAT1/3 INHIBITORS WITH ONCOLYTIC HERPES VIRUS” (priority 2016, published 2019).

What all share (type): cell-based
One test concerns ICP4. The experiment in a line: Western blot of ICP4 in HSV-1 infected microglia cells. The settings on record: G207 infected; 1 μM C16, 1 μM Bay11 or 100 μM AG; 24 hours. The method, then: FIG. 12B depicts an electrophoresis gel showing total proteins that were harvested from G2O7 infected microglia cells at 24 hours post treatment with either 1 μM of C16, 1 μM of Bay11, or 100 μM of AG. ICP27, ICP4, and […] expression was measured by western blot assay. U87 and MG co-culture were pretreated with 0.5 μM of C16 for 1 hour.
Total protein was harvested with sample buffer (125 mM Tris-HCL, 50% Glycerol, […] and 5% 2-mercaptoethanol) and boiled for 5 minutes. Protein samples were subjected to SDS-PAGE (8% gel), transferred to nitrocellulose membranes and blocked in 5% nonfat milk (Bio Rad) in TBS-Tween 20 (TBS-T) for 1 hour at room temperature. The membranes were then incubated with primary antibody against β-actin at 1:1000 (Cell Signaling, Danvers, Mass.) or anti-STAT1 antibody at 1:1000 (Cell Signaling, Danvers, Mass.) or anti-STAT3 antibody at 1:1000 (Cell Signaling, Danvers, Mass.) or anti-phospho STAT1 antibody (Tyr701) at 1:1000 (Cell Signaling, Danvers, Mass.) or anti-phospho STAT3 antibody (Tyr705) at 1:1500 (Cell Signaling, Danvers, Mass.) or anti-phosphor-eIF2a antibody (ser51) at 1:1000 (Cell Signaling, Danvers, Mass.) or anti-ICP27 antibody at 1:1000 (Abcam, Cambridge, Mass.) or anti-ICP4 antibody at 1:750 (Abcam, Cambridge, Mass.) for overnight at 4° C. […] Band density was measured by using ImageJ software (NIH, Bethesda, Md.). […]
Background: Immunoblotting shows a protein as a band on a membrane.

Another test relates to U87 cells. Briefly: MTT cytotoxicity assay, U87 cells. The settings on record: Homo sapiens, U-87 MG. The method, then:
(§1) (FIG. 5A) U87 cells were treated with HrR3 at a MOI of 5 and indicated concentration of nifuroxazide for 6 hours. Extracted protein was then subjected to western blot assay. (FIG. 5B) U87 cells were treated with indicated concentration of HrR3 or nifuroxazide or stattic or in combination for 72 hours. Cytotoxicity was measured by MTT assay. (FIG. 5C) Relative mRNA level (2^−ΔΔCT) is shown. Data are presented as mean SD, *P<0.05 vs corresponding vehicle treatment.
(§2) Expression of key regulator of the Type1 interferon signaling, STAT1 and STAT3, was determined in nifuroxazide treated oHSV-1 infected U87 cells.

In a further test the target is T1, STAT1 (Homo sapiens, UniProt P42224).
T1 construct: Extracted protein was then subjected to western blot assay; endogenous in cells; host or cells: U87 cells, with or without HrR3 infection
T1 sequence (P42224 1-750): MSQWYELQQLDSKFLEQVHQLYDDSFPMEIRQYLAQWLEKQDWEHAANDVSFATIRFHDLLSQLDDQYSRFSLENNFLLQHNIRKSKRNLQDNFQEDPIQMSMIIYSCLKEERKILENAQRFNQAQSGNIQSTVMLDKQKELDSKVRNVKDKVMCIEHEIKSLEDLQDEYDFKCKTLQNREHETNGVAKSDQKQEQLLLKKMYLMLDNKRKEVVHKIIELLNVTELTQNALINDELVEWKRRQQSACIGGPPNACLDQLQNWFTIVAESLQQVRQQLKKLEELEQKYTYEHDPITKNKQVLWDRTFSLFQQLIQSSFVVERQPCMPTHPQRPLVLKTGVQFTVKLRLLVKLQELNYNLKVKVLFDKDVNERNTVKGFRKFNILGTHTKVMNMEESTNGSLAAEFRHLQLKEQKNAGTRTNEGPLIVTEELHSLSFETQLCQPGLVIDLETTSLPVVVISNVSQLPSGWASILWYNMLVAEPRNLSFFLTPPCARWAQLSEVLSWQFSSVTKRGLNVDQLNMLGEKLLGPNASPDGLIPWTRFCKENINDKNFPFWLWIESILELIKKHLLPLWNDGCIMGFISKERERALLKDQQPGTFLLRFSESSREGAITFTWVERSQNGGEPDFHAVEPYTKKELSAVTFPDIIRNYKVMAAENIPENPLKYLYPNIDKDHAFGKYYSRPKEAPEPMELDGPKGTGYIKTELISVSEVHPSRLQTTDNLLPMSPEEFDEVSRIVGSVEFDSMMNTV
The experiment in a line: Western blot of STAT1 phosphorylation in U87 cells. The protocol:
as §1
FIG. 19A and FIG. 19B, U87 cells (A) or CT26 cells (B) were treated with the indicated concentrations of HrR3 or NF or a combination. Total protein was extracted after 24 hours and subjected to western blot analysis. Band intensity was measured using Image J software and normalized to β-actin. Samples were run in triplicate and data are as means±S.E. Statistically significant differences are indicated by P<0.05 or P<0.01. FIG. 19C, Mice subcutaneously bearing U87 tumors were intratumorally injected with a single dose of HrR3 virus (1×10^6 PFU) and/or peritoneally injected doses of NF as indicated. Tumors were harvested on day 10 post treatment and total protein was extracted from a mouse of each treatment group and subjected to western blot analysis in triplicate. Results are reported as means±S.E.
as §2
NF is a known inhibitor of STAT1 and STAT3. To evaluate the underlying molecular mechanism of the anti-tumour effect of the NF and oHSV-1 combination, the STAT1 and STAT3 status in U87 cells (FIG. 19A) and CT26 cells (FIG. 19B) cells was determined after an overnight treatment with NF and oncolytic viruses.

Like-named read-outs stand apart in the source and are kept apart here.

Take `O=C1Nc2ccc3ncsc3c2/C1=C/c1c[nH]cn1` [C16, 6,8-Dihydro-8-(1H-imidazol-5-ylmethylene)-7H-pyrrolo[2,3-g]benzothiazol-7-one]: in the test with ICP4, the “upregulated expression of ICP4” value turned out to be 1.8 fold.

With `O=C(N/N=C/c1ccc([N+](=O)[O-])o1)c1ccc(O)cc1` [nifuroxazide, Benzoic acid, 4-hydroxy-, [(5-nitro-2-furanyl)metylene]hydrazide], the IC50 with U87 cells (in combination with MOI of 1 HrR3, 72 hours, read-out: IC50, nifuroxazide dose in combination) was roughly 4 µM; in the test with U87 cells (individual dose, 72 hours, MTT assay, read-out: Inhibitory concentration 50% (IC50)) it was roughly 20 µM. Further, on STAT1 (24 hours), the “HrR3 induced upregulation of STAT1 phosphorylation” value is given as “effectively suppressed”. The STAT1 phosphorylation entry at STAT1 (HrR3 MOI of 5, 6 hours) was “dose dependent STAT1 and STAT3 phosphorylation reduction”. Moreover, the “phosphorylation of STAT1” value at STAT1 (NF alone, 24 hours) is given as “dose dependent inhibition”.
